According to patent US3965180A, “4'-Fluoro-4-{[4-(phenyl)-4-alkoxy-cyclo-hexyl]amino}butyrophenones and the salts thereof” (The Upjohn Company, priority 1973, dated 1976):
Where a name gives a salt, the structure may show the parent alone.

Tests used:
Type in all cases: in vivo
[1] = tested on: mice; test: Dish test (mice remaining in Petri dish for more than 3 minutes); conditions: Mus musculus, ip, 0.05 h, intraperitoneal injection, dose at which 50% of the mice remain in the dish more than 3 minutes, read-out: ED50, D = dish test
Protocol: (§1) The free bases and acid addition salts of the novel compounds of Formula I are useful as central nervous system (CNS) depressants when administered to humans and animals.
(§2) Tranquilizing effects of certain compounds of this invention are shown by the following tests in mice:
Dish test: Mice in Petri dishes (10 cm. diameter, 5 cm. high, partially embedded in wood shavings), climb out in a very short time, when not treated. Mice remaining in the dish for more than 3 minutes indicates tranquilization. ED50 equals the dose of test compound at which 50% of the mice remain in the dish.

[2] = tested on: mice; test: Chimney test (ability of mice to back up and out of a vertical glass cylinder within 30 seconds); conditions: Mus musculus, ip, intraperitoneal injection, dose at which 50% of the mice failed to back out within 30 seconds, read-out: ED50, Ch = chimney test
Description: as §1, §2
Chimney test: [Med. Exp. 4, 145 (1961)]: The test determines the ability of mice to back up and out of a vertical glass cylinder within 30 seconds. At the effective dosage, 50% of the mice failed doing it.

[3] = tested on: mice; test: Pedestal test (mice staying on the pedestal for more than 1 minute); conditions: Mus musculus, ip, 1 min, intraperitoneal injection, stay on pedestal for more than 1 minute, read-out: ED50, P = pedestal test
Protocol: as §1, §2
Pedestal test: The untreated mouse leaves a standard pedestal in less than a minute to climb back to the floor of the standard mouse box. Tranquilized mice will stay on the pedestal for more than 1 minute.

[4] = tested on: mice; test: Nicotine antagonism test (nicotine salicylate 2 mg./kg.; (3) death); conditions: Mus musculus, ip, intraperitoneal injection 30 minutes before nicotine salicylate (2 mg./kg.), read-out: ED50, Ni = nicotine antagonism (3) test
Protocol: as §2
Nicotine antagonism test: Mice in a group of 6 are injected with the test compound. Thirty minutes later the mice including control (untreated) mice are injected with nicotine salicylate (2 mg./kg.). The control mice show overstimulation, i.e., (1) running convulsions followed by (2) tonic extensor fits; followed by (3) death.

| Structure (SMILES) | ED50 [1] | ED50 [2] | ED50 [3] | ED50 [4] |
| --- | --- | --- | --- | --- |
| CO[C@]1(c2ccc(F)cc2)CC[C@@H](NCCCC(=O)c2ccc(F)cc2)CC1 [4'-fluoro-4-{[4-cis-(p-fluorophenyl)-4-transmethoxycyclohexyl]amino}butyrophenone hydrohydrochloride (I)] | 1.6 mg/kg | 8 mg/kg | 2.5 mg/kg | 3.2 mg/kg |
| CO[C@]1(c2ccc(C)cc2)CC[C@H](NCCCC(=O)c2ccc(F)cc2)CC1 [4'-fluoro-4-{[4-cis-methoxy-4-trans-(p-methylphenyl)cyclohexyl]amino}butyrophenone hydrochloride (I)] | 1.1 mg/kg | 2.5 mg/kg | 2 mg/kg | 4.5 mg/kg |
| CO[C@]1(c2ccc(F)cc2)CC[C@H](NCCCC(=O)c2ccc(F)cc2)CC1 [4'-fluoro-4-{[4-trans-(p-fluorophenyl)-4-cis-methoxycyclohexyl]amino}butyrophenone hydrochloride (I)] | 0.09 mg/kg | 2.5 mg/kg | 1.3 mg/kg | 0.4 mg/kg |
